According to PubChem BioAssay (NCI):
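Protocol summary: plate cells (96-well), add compound at 5 concentrations, incubate 48 h, interpolate endpoints linearly. TGI marks complete inhibition of growth.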

Tests used:
Assay in all cases: NCI-60 cell line screen, 48 h
CCRF-CEM leukemia = system: CCRF-CEM leukemia
NCI-H226 lung = system: NCI-H226 lung
HCT-116 colon = system: HCT-116 colon
SR leukemia = system: SR leukemia
M14 melanoma = system: M14 melanoma
SK-MEL-5 melanoma = system: SK-MEL-5 melanoma
MDA-N = system: MDA-N
T-47D breast = system: T-47D breast
HS 578T breast = system: HS 578T breast
KM12 colon = system: KM12 colon
HT29 colon = system: HT29 colon
OVCAR-3 ovarian = system: OVCAR-3 ovarian

Row | Compound | TGI (CCRF-CEM leukemia) [µM] | TGI (NCI-H226 lung) [µM] | TGI (HCT-116 colon) [µM] | TGI (SR leukemia) [µM] | TGI (M14 melanoma) [µM] | TGI (SK-MEL-5 melanoma) [µM] | TGI (MDA-N) [µM] | TGI (T-47D breast) [µM] | TGI (HS 578T breast) [µM] | TGI (KM12 colon) [µM] | TGI (HT29 colon) [µM] | TGI (OVCAR-3 ovarian) [µM]
1 | Cc1ccc(S(=O)(=O)N2CC2CCCCC=O)cc1 (stereo not given) | 55.1 | > 100 | > 100 | 37.2 | > 100 | > 100 | > 100 | > 100 | > 100 | > 100 | > 100 | > 100
2 | CC1=C/C(=N\NC(N)=S)C(C(O)(C(F)(F)F)C(F)(F)F)C(C)(C)C1 (stereo not given) | > 10 | > 10 | > 10 | > 10 | > 10 | > 10 | > 10 | > 10 | > 10 | > 10 | > 10 | > 10
3 | COCOC1/C=C/CCCCC(=O)C(C)C#CC1 (stereo not given) | 5.81 | 35.3 | 3.34 | 8.02 | 14.5 | 15.3 | 27 | 6.39 | > 73.7 | 25.5 | 8.28 | 10.9
4 | O=C1C(Br)=C(Br)C(=O)c2ccc(=O)ccc21 | 17 | > 100 | 39.1 | 45 | 32.7 | 44.4 | 44.8 | 48.5 | > 84.5 | > 100 | > 75 | 41.8
5 | C(=C/CCCN1O[C@@H](CCCCCCCCc2cccnc2)[C@H]2CCC[C@H]21)/CCCCCCCCCc1cccnc1 | 41.3 | 36.8 | 40.4 | 51.5 | 63 | 43.7 | 71.9 | 66.6 | > 100 | 58.7 | 61.1 | 36.1
6 | O=C1SC(SCc2ccccc2)=NC12CC2c1ccccc1 (stereo not given) | 11.1 | 52 | 31.4 | 52.5 | 37.8 | 34.1 | 49 | > 100 | 68.4 | 33.2 | 54 | > 72.7
7 | COc1ccc(S(=O)(=O)n2c3c(c4ccccc42)[C@@H]2[C@@H](CCCN2C(=O)CS(=O)c2ccc(C)cc2)[C@H](Cl)C3)cc1 (stereo not given in full) | > 100 | > 100 | > 100 | > 100 | > 100 | > 100 | > 100 | > 100 | > 100 | > 100 | > 100 | > 100
8 | CC(C)(CN1CCCCC1)C(/C=C/c1ccc(Cl)cc1)=N\NC(=O)N/N=C(/C=C/c1ccc(Cl)cc1)C(C)(C)CN1CCCCC1 | > 21.9 | 16.4 | 12.5 | 8.52 | 11.1 | 11.2 | 10.7 | 13.6 | 19.9 | 16.9 | 12.2 | 10.7
9 | COc1ccc(C(C)NNC(=O)c2ccncc2)cc1OC (stereo not given) | > 100 | > 100 | > 100 | > 100 | > 100 | > 100 | > 100 | > 100 | > 100 | > 100 | > 100 | > 100
10 | COC(=O)c1cccc(C)c1C1CN=NC12Cc1cc(C)cc(C)c1C2=O (stereo not given) | > 100 | > 100 | 66.5 | > 100 | 93.6 | 77 | > 100 | 53.7 | > 100 | > 100 | 86.7 | > 100
